According to patent US20260042769A1, “TRIARYL AGONISTS OF ALPHA-2 ADRENERGIC RECEPTORS” (ALCEPTOR THERAPEUTICS, INC., priority 2023, published 2026):

Molecular target: T1, human ADRA2B receptor (Homo sapiens, UniProt P18089)
T1 construct: expressed in transfected cells
T1 sequence (P18089 1-450): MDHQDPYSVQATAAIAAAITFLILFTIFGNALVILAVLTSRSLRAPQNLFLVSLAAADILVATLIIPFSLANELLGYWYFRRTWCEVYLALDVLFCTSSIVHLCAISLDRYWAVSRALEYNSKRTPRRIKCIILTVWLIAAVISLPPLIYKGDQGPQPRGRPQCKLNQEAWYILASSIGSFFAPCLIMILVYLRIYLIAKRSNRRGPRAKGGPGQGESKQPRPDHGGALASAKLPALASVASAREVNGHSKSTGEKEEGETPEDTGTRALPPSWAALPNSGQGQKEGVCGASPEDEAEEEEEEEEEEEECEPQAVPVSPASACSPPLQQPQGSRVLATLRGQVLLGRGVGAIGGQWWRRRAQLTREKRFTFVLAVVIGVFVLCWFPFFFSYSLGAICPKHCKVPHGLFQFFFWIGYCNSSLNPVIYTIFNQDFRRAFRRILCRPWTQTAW
Test: ADRA2B arrestin agonist assay
Type: cell-based
Conditions: CHO-K1 cells stably expressing human ADRA2B; read-out: Beta-Arrestin - Human Alpha2B EC50
Procedure: ADRA2A and ADRA2B Arrestin Agonist Assay Method
The arrestin assay uses frozen CHO-K1 cell lines stably expressing human ADRA2A and ADRA2B receptors. Cells are frozen following normal cell freezing protocols. Briefly, cells are washed with PBS and then dissociated with 0.25% trypsin. Dissociated cells are quenched in full media and then collected by centrifugation at 290×g for 5 minutes. […] Cells are stored at −80° C. (or in liquid N2 if stored >6 months) until the day of the assay.
On the day before the assay, frozen cells are thawed in a 37° C. water bath, brought up in 20 mL of full media, and collected via centrifugation at 290×g for 5 minutes. […] Cells are incubated overnight in a 37° C., 5% CO2 cell incubator.
On the day of the assay, agonists are diluted in Opti-MEM to 3.5x of the final assay concentration. 4 μL of agonists are added to the cells and incubated for 2 hours at 37° C. in a 5% CO2 cell incubator. 6 μL of arrestin detection reagents are dispensed onto the cells and the plates are incubated for 2 hours at room temperature. […] Plates are read on an Envision luminescence plate reader.

Row | EC50 | SMILES
1 | < 10 nM | Cc1cccc([C@H](Cc2ccn(CF)n2)c2c[nH]cn2)c1C [Compound 261, 3-[(S)-2-(4-imidazolyl)-2-(2,3-xylyl)ethyl]-1-(fluoromethyl)pyra-zole]
2 | 10 to 50 nM | Cc1cccc([C@H](Cc2ccnn2CF)c2c[nH]cn2)c1C [Compound 262, 5-[(S)-2-(4-imidazolyl)-2-(2,3-xylyl)ethyl]-1-(fluoromethyl)pyra-zole]
3 | 50 to 500 nM | Cc1nnc(CC(c2c[nH]cn2)c2cccc(C)c2C)s1 (centres unmarked) [Compound 263, 2-[2-(4-imidazolyl)-2-(2,3-xylyl)ethyl]-5-methyl-1,3,4-thiadiazole]
4 | 50 to 500 nM | Cc1nsc(CC(c2c[nH]cn2)c2cccc(C)c2C)n1 (centres unmarked) [Compound 264, 5-[2-(4-imidazolyl)-2-(2,3-xylyl)ethyl]-3-methyl-1,2,4-thiadiazole]
5 | 10 to 50 nM | Cc1cccc(C[C@@H](c2c[nH]cn2)c2cccc3c2OCC3)n1 [Compound 265, 4-[(R)-1-(2,3-dihydro-1-benzofuran-7-yl)-2-(6-methyl-2-pyridyl)ethyl]imida-zole]
6 | > 500 nM | Cc1cccc(C[C@H](c2c[nH]cn2)c2cccc3c2OCC3)n1 [Compound 266, 4-[(S)-1-(2,3-dihydro-1-benzofuran-7-yl)-2-(6-methyl-2-pyridyl)ethyl]imida-]
7 | 50 to 500 nM | Cn1nccc1CC(c1c[nH]cn1)c1cccc2ccn(C)c12 (centres unmarked) [Compound 267, 5-[2-(4-imidazolyl)-2-(1-methyl-7-indolyl)ethyl]-1-methylpyrazole]
8 | 50 to 500 nM | Cc1ncncc1CC(c1c[nH]cn1)c1cccc2c1OCC2 (centres unmarked) [Compound 268, 5-[2-(2,3-dihydro-1-benzofuran-7-yl)-2-(4-imidazolyl)ethyl]-4-methylpyrimidine]
9 | 50 to 500 nM | Cn1nccc1CC(c1c[nH]cn1)c1cccc2c1cnn2C (centres unmarked) [Compound 269, 4-[1-(4-imidazolyl)-2-(1-methyl-5-pyrazolyl)ethyl]-1-methyl-1H-indazole]
10 | < 10 nM | CNc1ccc(CC(c2c[nH]cn2)c2cccc(C)c2C)cn1 (centres unmarked) [Compound 270, N-methyl{5-[2-(4-imidazolyl)-2-(2,3-xylyl)ethyl]-2-pyridyl}amine]
11 | < 10 nM | COc1ccc(CC(c2c[nH]cn2)c2cccc(C)c2C)cn1 (centres unmarked) [Compound 273, 4-[2-(6-methoxy-3-pyridyl)-1-(2,3-xylyl)ethyl]imidazole]
12 | < 10 nM | COc1cc(CC(c2c[nH]cn2)c2cccc(C)c2C)ccn1 (centres unmarked) [Compound 274, 4-[2-(2-methoxy-4-pyridyl)-1-(2,3-xylyl)ethyl]imidazole]
13 | 10 to 50 nM | COc1ncncc1CC(c1c[nH]cn1)c1cccc(C)c1C (centres unmarked) [Compound 275, 5-[2-(4-imidazolyl)-2-(2,3-xylyl)ethyl]-4-methoxypyrimidine]
14 | 50 to 500 nM | COc1c(C)cccc1C(Cc1cc(C)ncn1)c1c[nH]cn1 (centres unmarked) [Compound 276, 4-[2-(4-imidazolyl)-2-(2-methoxy-3-tolyl)ethyl]-6-methylpyrimidine]
15 | < 10 nM | COCn1ccc(C[C@H](c2c[nH]cn2)c2cccc(C)c2C)n1 [Compound 278, 3-[(S)-2-(4-imidazolyl)-2-(2,3-xylyl)ethyl]-1-(methoxymethyl)pyrazole]
16 | < 10 nM | Cc1cccc([C@H](Cc2ccn(C(F)F)n2)c2c[nH]cn2)c1C [Compound 280, 3-[(S)-2-(4-imidazolyl)-2-(2,3-xylyl)ethyl]-1-(difluoromethyl)pyrazole]
17 | < 10 nM | Cc1cccc([C@H](Cc2ccnn2C(F)F)c2c[nH]cn2)c1C [Compound 281, 5-[(S)-2-(4-imidazolyl)-2-(2,3-xylyl)ethyl]-1-(difluoromethyl)pyrazole]
18 | > 500 nM | Cc1cccc([C@@H](Cc2ccn(C(F)F)n2)c2c[nH]cn2)c1C [Compound 282, 3-[(R)-2-(4-imidazolyl)-2-(2,3-xylyl)ethyl]-1-(difluoromethyl)pyrazole]

Row | EC50 | SMILES
19 | < 10 nM | Cc1cccc(C(Cc2cnc3[nH]ccc3c2)c2c[nH]cn2)c1C (centres unmarked) [Compound 283, 4-[2-(1H-1,7-diazainden-5-yl)-1-(2,3-xylyl)ethyl]imidazole]
20 | 10 to 50 nM | Cc1cccc(CC(c2c[nH]cn2)c2cccc3ccn(C)c23)n1 (centres unmarked) [Compound 284, 4-[1-(1-methyl-7-indolyl)-2-(6-methyl-2-pyridyl)ethyl]imidazole]
21 | 10 to 50 nM | Cc1cccc(C(Cc2cnc3cnccn23)c2c[nH]cn2)c1C (centres unmarked) [Compound 285, 3-[2-(4-imidazolyl)-2-(2,3-xylyl)ethyl]-1,3a,6-triazaindene]
22 | < 10 nM | Cc1cccc(C(Cc2ncnc3[nH]ccc23)c2c[nH]cn2)c1C (centres unmarked) [Compound 286, 4-[2-(4-imidazolyl)-2-(2,3-xylyl)ethyl]-1H-1,5,7-triazaindene]
23 | < 10 nM | Cc1cccc(C(Cc2cnc3n[nH]cc3c2)c2c[nH]cn2)c1C (centres unmarked) [Compound 287, 5-[2-(4-imidazolyl)-2-(2,3-xylyl)ethyl]-2H-1,2,7-triazaindene-formic acid (1/1)]
24 | < 10 nM | Cc1cccc(C(Cc2ccc(C(N)=O)nc2)c2c[nH]cn2)c1C (centres unmarked) [Compound 288, 5-[2-(4-imidazolyl)-2-(2,3-xylyl)ethyl]-2-pyridinecarboxamide]
25 | < 10 nM | Cc1cccc(C(Cc2ccnc(C(C)C)n2)c2c[nH]cn2)c1C (centres unmarked) [Compound 291, 4-[2-(4-imidazolyl)-2-(2,3-xylyl)ethyl]-2-isopropylpyrimidine]
26 | < 10 nM | Cc1cccc(C(Cc2ccc(N(C)C)nc2)c2c[nH]cn2)c1C (centres unmarked) [Compound 292, N,N-dimethyl{5-[2-(4-imidazolyl)-2-(2,3-xylyl)ethyl]-2-pyridyl}amine]
27 | 10 to 50 nM | CCOc1ccc(CC(c2c[nH]cn2)c2cccc(C)c2C)cn1 (centres unmarked) [Compound 293, 4-[2-(6-ethoxy-3-pyridyl)-1-(2,3-xylyl)ethyl]imidazole]
28 | < 10 nM | COCc1cccc(CC(c2c[nH]cn2)c2cccc(C)c2C)n1 (centres unmarked) [Compound 294, 4-{2-[6-(methoxymethyl)-2-pyridyl]-1-(2,3-xylyl)ethyl}imidazole]
29 | < 10 nM | COCc1cc(CC(c2c[nH]cn2)c2cccc(C)c2C)ccn1 (centres unmarked) [Compound 295, 4-{2-[2-(methoxymethyl)-4-pyridyl]-1-(2,3-xylyl)ethyl}imidazole]
30 | 10 to 50 nM | Cc1cccc([C@H](Cc2ccn(C3COC3)n2)c2c[nH]cn2)c1C [Compound 296, 3-[(S)-2-(4-imidazolyl)-2-(2,3-xylyl)ethyl]-1-(3-oxetanyl)pyrazole]
31 | > 500 nM | CC(C)n1cc(C[C@@H](c2c[nH]cn2)c2cccc3c2OCC3)cn1 [Compound 297, 4-[(R)-2-(2,3-dihydro-1-benzofuran-7-yl)-2-(4-imidazolyl)ethyl] 1-isopropylpyrazole]
32 | < 10 nM | CC(C)n1cc(C[C@H](c2c[nH]cn2)c2cccc3c2OCC3)cn1 [Compound 298, 4-[(S)-2-(2,3-dihydro-1-benzofuran-7-yl)-2-(4-imidazolyl)ethyl]-1-isopropylpyrazole]
33 | > 500 nM | Cn1nccc1CC(c1c[nH]cn1)c1cccc2c1OCCCO2 (centres unmarked) [Compound 299, 5-[2-(3,4-dihydro-2H-1,5-benzodioxepin-6-yl)-2-(4-imidazolyl)ethyl]-1-]
34 | < 10 nM | c1cc2c(c(C(Cc3ccc4nccn4c3)c3c[nH]cn3)c1)OCC2 (centres unmarked) [Compound 300]
35 | 10 to 50 nM | Cn1ncc2c(C(Cc3cccc(CO)n3)c3c[nH]cn3)cccc21 (centres unmarked) [Compound 301, {6-[2-(4-imidazolyl)-2-(1-methyl-1H-indazol-4-yl)ethyl]-2-pyridyl}methanol]
